Experimental data taken from patent US20160158200A1, “Combinations of Hepatitis C Virus Inhibitors” (priority 2013, published 2016).

System: HCV genotype-1a variant with glutamine 30 changed to glutamate in the NS5A protein
Type: cell-based
Details: test compound titrated with BMS-790052 fixed at 200 nM; genotype 1a Q30E replicon
How it was run: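 Synergy was assessed by combining several fixed amounts of an NS5A-targeting compound with a titration of the second compound of interest.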

Structure (SMILES)	Fold-Synergistic 1a (Q30E) [fold]
CC(C)(C)[C@H](NC(=O)C(C)(C)C1(O)CCC(F)(F)CC1)c1nc(-c2ccc(-c3ccc(-c4c[nH]c([C@@H](NC(=O)C(C)(C)C5(O)CCC(F)(F)CC5)C(C)(C)C)n4)cc3)cc2)c[nH]1 [Compound P-149]	>100
CC(C)(C(=O)N[C@H](c1nc(-c2ccc(-c3ccc(-c4c[nH]c([C@@H](NC(=O)C(C)(C)C5CCC(F)(F)CC5)C(C)(C)C)n4)cc3)cc2)c[nH]1)C(C)(C)C)C1CCC(F)(F)CC1 [Compound P-150]	>100
CC1(C(NC(=O)C2(O)CCC(F)(F)CC2)c2nc(-c3ccc(-c4ccc(-c5c[nH]c(C(NC(=O)C6(O)CCC(F)(F)CC6)C6(C)CC6)n5)cc4)cc3)c[nH]2)CC1.O=C(O)C(F)(F)F.O=C(O)C(F)(F)F (centres unmarked) [Compound P-151]	>100
CC1(C)COC(C)(C(=O)N[C@H](c2nc(-c3ccc(-c4ccc(-c5c[nH]c([C@@H](NC(=O)C6(C)OCC(C)(C)CO6)C(C)(C)C)n5)cc4)cc3)c[nH]2)C(C)(C)C)OC1 [Compound P-154]	>100
CC(C)(C)[C@H](NC(=O)C(C)(C)C1(O)CCCCC1)c1nc(-c2ccc(-c3ccc(-c4c[nH]c([C@@H](NC(=O)C(C)(C)C5(O)CCCCC5)C(C)(C)C)n4)cc3)cc2)c[nH]1 [Compound P-160]	>100
COC(=O)NC(C)(C)C(=O)N[C@H](c1nc(-c2ccc(-c3ccc(-c4c[nH]c([C@@H](NC(=O)C(C)(C)NC(=O)OC)C(C)(C)C)n4)cc3)cc2)c[nH]1)C(C)(C)C [Compound Q-1]	>100
CCOC(=O)NC(C)(C)C(=O)N[C@H](c1nc(-c2ccc(-c3ccc(-c4c[nH]c([C@@H](NC(=O)C(C)(C)NC(=O)OCC)C(C)(C)C)n4)cc3)cc2)c[nH]1)C(C)(C)C [Compound Q-2]	>100
CC(C)OC(=O)NC(C)(C)C(=O)N[C@H](c1nc(-c2ccc(-c3ccc(-c4c[nH]c([C@@H](NC(=O)C(C)(C)NC(=O)OC(C)C)C(C)(C)C)n4)cc3)cc2)c[nH]1)C(C)(C)C [Compound Q-3]	>100
CC(C)(NC(=O)OCCF)C(=O)N[C@H](c1nc(-c2ccc(-c3ccc(-c4c[nH]c([C@@H](NC(=O)C(C)(C)NC(=O)OCCF)C(C)(C)C)n4)cc3)cc2)c[nH]1)C(C)(C)C [Compound Q-4]	>100
CC(C)(NC(=O)OC1CCCCC1)C(=O)N[C@H](c1nc(-c2ccc(-c3ccc(-c4c[nH]c([C@@H](NC(=O)C(C)(C)NC(=O)OC5CCCCC5)C(C)(C)C)n4)cc3)cc2)c[nH]1)C(C)(C)C [Compound Q-6]	>100
CC(C)(C)[C@H](NC(=O)C(C)(C)N1CCOCC1)c1nc(-c2ccc(-c3ccc(-c4c[nH]c([C@@H](NC(=O)C(C)(C)N5CCOCC5)C(C)(C)C)n4)cc3)cc2)c[nH]1 [Compound Q-7]	>100
CC(C)[C@H](NC(=O)C1(C)CC1)c1ncc(-c2ccc(-c3ccc(-c4cnc([C@@H](NC(=O)C5(C)CC5)C(C)C)[nH]4)cc3)cc2)[nH]1 [Compound S-1]	>100
CC(C)[C@H](NC(=O)C1(c2ccc(Cl)cc2)CCCC1)c1ncc(-c2ccc(-c3ccc(-c4cnc([C@@H](NC(=O)C5(c6ccc(Cl)cc6)CCCC5)C(C)C)[nH]4)cc3)cc2)[nH]1 [Compound S-2]	>100
CC(C)[C@H](NC(=O)CC1CCCC1)c1ncc(-c2ccc(-c3ccc(-c4cnc([C@@H](NC(=O)CC5CCCC5)C(C)C)[nH]4)cc3)cc2)[nH]1 [Compound S-3]	>100
CC(C)[C@H](NC(=O)c1ccccc1)c1ncc(-c2ccc(-c3ccc(-c4cnc([C@@H](NC(=O)c5ccccc5)C(C)C)[nH]4)cc3)cc2)[nH]1 [Compound S-5]	>100
CC(C)[C@H](NC(=O)c1c(F)cccc1Cl)c1ncc(-c2ccc(-c3ccc(-c4cnc([C@@H](NC(=O)c5c(F)cccc5Cl)C(C)C)[nH]4)cc3)cc2)[nH]1 [Compound S-6]	>100
CC(C)C(=O)N[C@H](c1ncc(-c2ccc(-c3ccc(-c4cnc([C@@H](NC(=O)C(C)C)C(C)C)[nH]4)cc3)cc2)[nH]1)C(C)C [Compound S-7]	>100
CC(C)[C@H](NC(=O)c1ccco1)c1ncc(-c2ccc(-c3ccc(-c4cnc([C@@H](NC(=O)c5ccco5)C(C)C)[nH]4)cc3)cc2)[nH]1 [Compound S-8]	>100
CC(C)[C@H](NC(=O)Cc1cccc2ccccc12)c1ncc(-c2ccc(-c3ccc(-c4cnc([C@@H](NC(=O)Cc5cccc6ccccc56)C(C)C)[nH]4)cc3)cc2)[nH]1 [Compound S-9]	>10
CC(C)[C@H](NC(=O)c1ccc2ccccc2c1)c1ncc(-c2ccc(-c3ccc(-c4cnc([C@@H](NC(=O)c5ccc6ccccc6c5)C(C)C)[nH]4)cc3)cc2)[nH]1 [Compound S-10]	>100
CC(C)[C@H](NC(=O)C(F)F)c1ncc(-c2ccc(-c3ccc(-c4cnc([C@@H](NC(=O)C(F)F)C(C)C)[nH]4)cc3)cc2)[nH]1 [Compound S-11]	>100
CC(C)[C@H](NC(=O)C(c1ccccc1)c1ccccc1)c1ncc(-c2ccc(-c3ccc(-c4cnc([C@@H](NC(=O)C(c5ccccc5)c5ccccc5)C(C)C)[nH]4)cc3)cc2)[nH]1 [Compound S-12]	>100

Structure (SMILES)	Fold-Synergistic 1a (Q30E) [fold]
COCC(=O)N[C@H](c1ncc(-c2ccc(-c3ccc(-c4cnc([C@@H](NC(=O)COC)C(C)C)[nH]4)cc3)cc2)[nH]1)C(C)C [Compound S-13]	>10
CC(C)[C@H](NC(=O)c1cccs1)c1ncc(-c2ccc(-c3ccc(-c4cnc([C@@H](NC(=O)c5cccs5)C(C)C)[nH]4)cc3)cc2)[nH]1 [Compound S-14]	>100
CC(C)[C@H](NC(=O)c1cnccn1)c1ncc(-c2ccc(-c3ccc(-c4cnc([C@@H](NC(=O)c5cnccn5)C(C)C)[nH]4)cc3)cc2)[nH]1 [Compound S-15]	>10
CC(C)[C@H](NC(=O)c1ccc(F)c(F)c1)c1ncc(-c2ccc(-c3ccc(-c4cnc([C@@H](NC(=O)c5ccc(F)c(F)c5)C(C)C)[nH]4)cc3)cc2)[nH]1 [Compound S-16]	>100
CC(C)[C@H](NC(=O)c1cccc(-c2ccccc2)c1)c1ncc(-c2ccc(-c3ccc(-c4cnc([C@@H](NC(=O)c5cccc(-c6ccccc6)c5)C(C)C)[nH]4)cc3)cc2)[nH]1 [Compound S-17]	>100
Cc1cc(C(=O)N[C@H](c2ncc(-c3ccc(-c4ccc(-c5cnc([C@@H](NC(=O)c6cc(C)on6)C(C)C)[nH]5)cc4)cc3)[nH]2)C(C)C)no1 [Compound S-18]	>100
CC(C)[C@H](NC(=O)c1ccc2nccnc2c1)c1ncc(-c2ccc(-c3ccc(-c4cnc([C@@H](NC(=O)c5ccc6nccnc6c5)C(C)C)[nH]4)cc3)cc2)[nH]1 [Compound S-19]	>100
CC(C)[C@H](NC(=O)C1CC1)c1ncc(-c2ccc(-c3ccc(-c4cnc([C@@H](NC(=O)C5CC5)C(C)C)[nH]4)cc3)cc2)[nH]1 [Compound S-20]	>100
CC(C)C(NC(=O)C1CC1c1ccccc1)c1ncc(-c2ccc(-c3ccc(-c4cnc(C(NC(=O)C5CC5c5ccccc5)C(C)C)[nH]4)cc3)cc2)[nH]1 (centres unmarked) [Compound S-21]	>100
CC(C)[C@H](NC(=O)C1CCC1)c1ncc(-c2ccc(-c3ccc(-c4cnc([C@@H](NC(=O)C5CCC5)C(C)C)[nH]4)cc3)cc2)[nH]1 [Compound S-22]	>100
CC(C)[C@H](NC(=O)C1CCCC1)c1ncc(-c2ccc(-c3ccc(-c4cnc([C@@H](NC(=O)C5CCCC5)C(C)C)[nH]4)cc3)cc2)[nH]1 [Compound S-23]	>100
COc1ccc(C2(C(=O)N[C@H](c3ncc(-c4ccc(-c5ccc(-c6cnc([C@@H](NC(=O)C7(c8ccc(OC)cc8)CCCC7)C(C)C)[nH]6)cc5)cc4)[nH]3)C(C)C)CCCC2)cc1 [Compound S-24]	>100
CC(C)[C@H](NC(=O)CCC1CCCC1)c1ncc(-c2ccc(-c3ccc(-c4cnc([C@@H](NC(=O)CCC5CCCC5)C(C)C)[nH]4)cc3)cc2)[nH]1 [Compound S-25]	>100
CC(C)[C@H](NC(=O)CC1CCCCC1)c1ncc(-c2ccc(-c3ccc(-c4cnc([C@@H](NC(=O)CC5CCCCC5)C(C)C)[nH]4)cc3)cc2)[nH]1 [Compound S-26]	>100
CC(C)[C@H](NC(=O)c1ccccc1Oc1ccccc1)c1ncc(-c2ccc(-c3ccc(-c4cnc([C@@H](NC(=O)c5ccccc5Oc5ccccc5)C(C)C)[nH]4)cc3)cc2)[nH]1 [Compound S-27]	>10
COc1ccc(C(=O)N[C@H](c2ncc(-c3ccc(-c4ccc(-c5cnc([C@@H](NC(=O)c6ccc(OC)cc6)C(C)C)[nH]5)cc4)cc3)[nH]2)C(C)C)cc1 [Compound S-28]	>100
CC(C)[C@H](NC(=O)CC#N)c1ncc(-c2ccc(-c3ccc(-c4cnc([C@@H](NC(=O)CC#N)C(C)C)[nH]4)cc3)cc2)[nH]1 [Compound S-29]	>100
CC(C)[C@H](NC(=O)CC(c1ccccc1)c1ccccc1)c1ncc(-c2ccc(-c3ccc(-c4cnc([C@@H](NC(=O)CC(c5ccccc5)c5ccccc5)C(C)C)[nH]4)cc3)cc2)[nH]1 [Compound S-30]	>100
CCC(=O)N[C@H](c1ncc(-c2ccc(-c3ccc(-c4cnc([C@@H](NC(=O)CC)C(C)C)[nH]4)cc3)cc2)[nH]1)C(C)C [Compound S-31]	>100
CC(C)CCC(=O)N[C@H](c1ncc(-c2ccc(-c3ccc(-c4cnc([C@@H](NC(=O)CCC(C)C)C(C)C)[nH]4)cc3)cc2)[nH]1)C(C)C [Compound S-32]	>100
CCCC(=O)N[C@H](c1ncc(-c2ccc(-c3ccc(-c4cnc([C@@H](NC(=O)CCC)C(C)C)[nH]4)cc3)cc2)[nH]1)C(C)C [Compound S-33]	>100
CC(C)[C@H](NC(=O)C(C)(C)C)c1ncc(-c2ccc(-c3ccc(-c4cnc([C@@H](NC(=O)C(C)(C)C)C(C)C)[nH]4)cc3)cc2)[nH]1 [Compound S-34]	>100
